The values that follow come from patent US20240058335A1, “METHODS FOR TREATMENT OF CANCER USING ABL INHIBITORS AND DRUGS TARGETING THE MEVALONATE PATHWAY” (Duke University, priority 2021, published 2024).

For this assay, the system named is HCC1954-LCC1 cells. Kind of assay: Intracranial injection model of HER2+ breast cancer brain metastasis. The conditions noted are these: oral gavage. The format is in vivo, mice. The protocol:
Nude mice were injected intracranially with HCC1954-LCC1 cells on Day 0. On Day 10, mice were divided evenly between treatment groups (Vehicle or GNF5) based on tumor burden and weight. Tumors were monitored weekly by BLI until experimental endpoint (Day 55). (FIG. 15A) Overall survival curve of nude mice injected intracranially with HCC1954-LCC1 and treated with vehicle (n=9) or GNF5 (n=10) and representative BLI images of mice at day 33 post-injection. (FIG. 16B) Overall survival curve of nude mice injected intracranially with HCC1954-LCC1 ABL1/2 KO (n=15) or control cells (n=15) and representative of BLI images of mice at day 21 post-injection. Statistical analysis was performed using Log-rank (Mantel-Cox) test.

`O=C(NCCO)c1cccc(-c2cc(Nc3ccc(OC(F)(F)F)cc3)ncn2)c1` [GNF5]: the animal survival result is reported as “markedly increased animal survival”; the “metastatic outgrowth and brain colonization (BLI)” value is “impaired metastatic outgrowth and colonization of the brain parenchyma”.
